Experimental data reported in US7875648B2, “N-(dibenz(b,f)oxepin-10-ylmethyl)-N-methyl-N-prop-2-ynylamine (omigapil) for the treatment of congenital muscular dystrophy or myopathy resulting from collagen VI deficiency” (Santhera Pharmaceuticals (Schweiz) AG, priority 2006, dated 2011).

Experiments:
[1] = test system: glyceraldehyde-3-phosphate dehydrogenase (GAPDH); conditions: reported in J. Biol. Chem. 273:5821-5828; cited from earlier work
[2] = test system: homozygous col6a1-/- mice (Col6a1-deficient mouse model), diaphragm muscle; assay: Apoptotic (TUNEL-positive) nuclei in diaphragm muscle of col6a1-/- mice; assay type: in vivo; conditions: 5 days
Source text: (§1) Homozyguous col6a1−/− mutants lack triple-helical collagen VI resulting in a phenotype that resembles BM/UCMD in human patients with collagen VI deficiency. Specifically, col6a1−/− mice show histological features of myopathy such as fiber necrosis and phagocytosis and a pronounced variation in fiber diameter. Muscles also show signs of stimulated regeneration of fibers and necrotic fibers are particularly frequent in the diaphragm thereby resembling more the clinical picture of UCMD than BM (Bertini E., Pepe G. (2002) Collagen type VI and related disorders: Bethlem myopathy and Ullrich scleroatonic muscular dystrophy Europ. J. Paediatric Neurology 6:193-198). […] This mitochondrial dysfunction might be caused by slight increase in of sarcolemmal calcium influx followed by calcium overload eventually causing opening of the mitochondrial permeability transition pore (MPTP) and finally apoptosis.
The effect of N-(dibenz(b,f)oxepin-10-ylmethyl)-N-methyl-N-prop-2-ynylammonium maleate (omigapil) was tested on the number of apoptotic nuclei in muscle of a Col6a1-deficient mouse model. Starting at 16±4 weeks of age, homozygous col6a1−/− mice were treated with omigapil. For this, omigapil was dissolved in 1% w/v ethanol to a final concentration of 20 μg/ml. Mutant mice received a final dose of 1 mg/kg or 10 mg/kg omigapil given twice daily by gavage following the guidance as described elsewhere (Sagot Y. et al. (2000) An orally active anti-apoptotic molecule (CGP 3466B) preserves mitochondria and enhances survival in an animal model of motoneuron disease. Br. J. Pharmacol. 131:721-728). For comparison col6a1−/− mice received the equivalent amount of vehicle only. After five days of application mice were sacrificed, the diaphragm removed, sectioned and stained for apoptotic nuclei using TUNEL staining. The number of apoptotic nuclei per mm2 area in the diaphragm muscle was determined as described (Irwin W A et al. (2003) Mitochondrial dysfunction and apoptosis in myopathic mice with collagen VI deficiency. Nature Genetics 35:367-371).

[3] = test system: Col6a1-deficient mice, mitochondria in muscle fibers of the diaphragm muscle; assay: Ultrastructural appearance of mitochondria in diaphragm muscle fibers of Col6a1-deficient mice; assay type: in vivo, mouse; conditions: for percentage of myofibers with pathologically altered mitochondria vs vehicle-treated animals: Col6a1-deficient mice, diaphragm, FIG. 2
Source text: as §1
The effect of N-(dibenz(b,f)oxepin-10-ylmethyl)-N-methyl-N-prop-2-ynylammonium maleate (omigapil) was tested on the effect to normalize ultrastructural defects in mitochondria of a Col6a1-deficient mouse model. For this, Col6a1-deficient mice were treated with omigapil as described in Example 1.
The ultrastructural appearance of mitochondria in muscle fibers of the diaphragm muscle was determined and quantified as described (Irwin W A et al. (2003) Mitochondrial dysfunction and apoptosis in myopathic mice with collagen VI deficiency. Nature Genetics 35:367-371).

For C#CCN(C)CC1=Cc2ccccc2Oc2ccccc21 [compound of formula (I), N-(dibenz(b,f)oxepin-10-ylmethyl)-N-methyl-N-prop-2-ynylamine], which “binding to glyceraldehyde-3-phosphate dehydrogenase (GAPDH)” value [1] is on record?
The value was “binds to glyceraldehyde-3-phosphate dehydrogenase (GAPDH)”.

What does the source list for “N-(dibenz(b,f)oxepin-10-ylmethyl)-N-methyl-N-prop-2-ynylammonium maleate [omigapil]”?
number of apoptotic nuclei in diaphragm muscle (TUNEL staining) vs vehicle-treated col6a1-/- mice ([2]; 1 mg/kg twice daily by gavage, N=3, FIG. 1): significantly reduced; number of apoptotic nuclei in diaphragm muscle (TUNEL staining) vs vehicle-treated col6a1-/- mice ([2]; 10 mg/kg twice daily by gavage, N=4, FIG. 1): significantly reduced; number of apoptotic nuclei in omigapil-treated animals relative to wild-type animal ([2]; omigapil-treated, diaphragm muscle): comparable to the number seen in diaphragm muscle of a wild-type animal; ultrastructural appearance of mitochondria in muscle fibers of the diaphragm muscle ([3]; Col6a1-deficient mice treated as in Example 1): normalized; percentage of myofibers with pathologically altered mitochondria vs vehicle-treated animals ([3]; 1 mg/kg (animals B1-B2)): clearly reduced; percentage of myofibers with pathologically altered mitochondria vs vehicle-treated animals ([3]; 10 mg/kg (animals A1-A3)): clearly reduced
